Experimental data published in the supplement of paper PMC8960247.
Counter-ions that a name gives are not always drawn. ± gives the standard error.

How the values were obtained:
621-102 (TSC2-deficient) = assay: relative viability vs DMSO; higher = less cytotoxic; details: serum: 10% FBS, 72 h
621-103 (TSC2-rescued) = assay: as above; details: serum: 10% FBS, 72 h
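Note: immortalized renal angiomyolipoma cells stably carrying empty vector or TSC2, dosed in 384-well plates in DMEM, viability normalized to vehicle-treated wells within each plate.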

| Structure (SMILES) | relative viability (621-102 (TSC2-deficient); 0.0001 µM) | relative viability (621-102 (TSC2-deficient); 0.001 µM) | relative viability (621-102 (TSC2-deficient); 0.01 µM) | relative viability (621-102 (TSC2-deficient); 0.1 µM) | relative viability (621-102 (TSC2-deficient); 1 µM) | relative viability (621-102 (TSC2-deficient); 10 µM) | relative viability (621-103 (TSC2-rescued); 0.0001 µM) | relative viability (621-103 (TSC2-rescued); 0.001 µM) | relative viability (621-103 (TSC2-rescued); 0.01 µM) | relative viability (621-103 (TSC2-rescued); 0.1 µM) | relative viability (621-103 (TSC2-rescued); 1 µM) | relative viability (621-103 (TSC2-rescued); 10 µM) |
| --- | --- | --- | --- | --- | --- | --- | --- | --- | --- | --- | --- | --- |
| O=C(c1ccc(/C=C/c2n[nH]c3ccccc23)cc1)N1CCNCC1 [KW 2449] | 103 ± 1.6% | 92.5 ± 3.8% | 93.7 ± 0.96% | 94.1 ± 1.3% | 95.02 ± 0.93% | 37.58 ± 0.36% | 102.2 ± 0.34% | 101.3 ± 0.97% | 101.8 ± 0.59% | 102 ± 1.6% | 96.784 ± 0.018% | 15.1 ± 0.84% |
| O=C(c1ccc(F)cc1)C1CCN(CCn2c(=O)[nH]c3ccccc3c2=O)CC1 [Ketanserin (Vulketan Gel)] | 89 ± 2.5% | 103 ± 2.1% | 98.4 ± 2% | 103.9 ± 0.64% | 92.4 ± 3.8% | 88.1 ± 1.1% | 113.6 ± 1.1% | 103 ± 2.4% | 102.89 ± 0.072% | 105.8 ± 0.41% | 107 ± 1.4% | 96.3 ± 1% |
| O=C(c1ccccc1)c1ccc2n1CCC2C(=O)O (stereo not drawn) [Ketorolac] | 102 ± 1.8% | 102 ± 4.5% | 106 ± 2.7% | 109 ± 3.2% | 117 ± 4.6% | 94.8 ± 7.1% | 96.9 ± 1.1% | 121 ± 6.7% | 128 ± 4% | 112 ± 3.3% | 98.25 ± 0.73% | 108 ± 1.6% |
| CCCCCCCCCCCCCCCC(=O)OC[C@H](O)[C@H]1OC(=O)C(O)=C1O [L-Ascorbyl 6-palmitate] | 122 ± 5.9% | 111 ± 2.5% | 107 ± 3.4% | 107 ± 1.8% | 106.5 ± 0.81% | 111 ± 2.4% | 99.8 ± 2.5% | 105.8 ± 0.61% | 96.5 ± 3.2% | 100 ± 2.4% | 97.4 ± 2.1% | 94.9 ± 5% |
| Cc1[nH]c2ccccc2c1CCNCc1ccc(/C=C/C(=O)NO)cc1 [LBH-589 (Panobinostat)] | 96.4 ± 2.3% | 86.7 ± 1.3% | 69.1 ± 3.1% | 41.28 ± 0.39% | 25.4 ± 1% | 11.9 ± 0.59% | 97.6 ± 1.1% | 85.6 ± 1.8% | 52.19 ± 0.31% | 4.57 ± 0.076% | 1.66 ± 0.2% | 1.1 ± 0.019% |
| Cc1c(C(=O)Nc2ccc(N3C[C@@H](C)O[C@@H](C)C3)nc2)cccc1-c1ccc(OC(F)(F)F)cc1 [LDE225] | 91.8 ± 6.5% | 106 ± 2.3% | 116 ± 3.8% | 120 ± 0.74% | 115 ± 5.7% | 81.9 ± 9.2% | 92.8 ± 2.8% | 113 ± 7.7% | 112 ± 2.8% | 115.8 ± 0.72% | 116 ± 6.1% | 54.6 ± 1.5% |
| CS(=O)(=O)CCNCc1ccc(-c2ccc3ncnc(Nc4ccc(OCc5cccc(F)c5)c(Cl)c4)c3c2)o1 [Lapatinib Ditosylate] | 102.2 ± 0.43% | 100 ± 1.8% | 110 ± 2.3% | 101.41 ± 0.072% | 103 ± 2.5% | 82.9 ± 3.4% | 97.35 ± 0.2% | 96.4 ± 3.8% | 104 ± 1.5% | 101 ± 3.3% | 99.1 ± 4% | 48.9 ± 1.6% |
| Nc1cccc2c1CN(C1CCC(=O)NC1=O)C2=O (stereo not drawn) [Lenalidomide] | 107 ± 2.9% | 115 ± 1.9% | 113 ± 3% | 112 ± 2.1% | 109 ± 4.8% | 98.472 ± 0.068% | 101 ± 1.6% | 98.8 ± 1% | 100 ± 1.1% | 100.4 ± 0.81% | 100.5 ± 0.13% | 98.62 ± 0.12% |
| N#Cc1ccc(C(c2ccc(C#N)cc2)n2cncn2)cc1 [Letrozole] | 130 ± 1.9% | 114 ± 5.8% | 114 ± 0.22% | 104 ± 5% | 113.3 ± 0.22% | 111 ± 1.2% | 103 ± 1.7% | 105 ± 2% | 103.5 ± 0.86% | 99.5 ± 1% | 102.6 ± 0.18% | 101 ± 1.1% |
| CC(=O)NC[C@H]1CN(c2ccc(N3CCOCC3)c(F)c2)C(=O)O1 [Linezolid] | 99.5 ± 7.5% | 108 ± 2.5% | 102.8 ± 0.25% | 105 ± 2.2% | 102 ± 4.4% | 101.1 ± 0.19% | 105 ± 5.3% | 110 ± 4.4% | 98.2 ± 2.4% | 101 ± 0.73% | 103 ± 1.3% | 104 ± 3% |
| CN(C)C(=O)C(CCN1CCC(O)(c2ccc(Cl)cc2)CC1)(c1ccccc1)c1ccccc1 [Loperamide HCl] | 112.8 ± 0.39% | 107 ± 1.7% | 99.2 ± 2.1% | 109 ± 4.1% | 106 ± 4.2% | 82.5 ± 1.3% | 91.7 ± 4.4% | 84.8 ± 2.2% | 97.2 ± 1.4% | 98.2 ± 1.8% | 92.17 ± 0.64% | 59.5 ± 0.85% |
| O=c1cc(-c2ccc(O)c(O)c2)oc2cc(O)cc(O)c12 [Luteolin (Luteolol)] | 108.1 ± 0.74% | 104 ± 2.9% | 104.7 ± 0.25% | 100 ± 3% | 105.3 ± 0.74% | 101.9 ± 0.18% | 107.6 ± 0.4% | 103 ± 3.2% | 102 ± 1.6% | 100 ± 3.7% | 108 ± 4.5% | 92.4 ± 2% |
| Cn1cc(/C=C/C(=O)c2cccc(F)c2)cc1/C=C/C(=O)NO [MC1568] | 109.3 ± 0.42% | 106.9 ± 0.32% | 103 ± 7.3% | 104 ± 2.1% | 98.5 ± 4.7% | 102.6 ± 0.25% | 99.97 ± 0.52% | 98 ± 1% | 99.34 ± 0.99% | 98.5 ± 1.1% | 100 ± 1.3% | 101 ± 1.5% |
| CC(C)C[C@@H](C=O)NC(=O)[C@H](CC(C)C)NC(=O)[C@H](CC(C)C)NC(=O)OCc1ccccc1 [MG-132] | 104 ± 2.3% | 102 ± 4% | 99.9 ± 1.6% | 94.63 ± 0.69% | 4.41 ± 0.73% | 1.52 ± 0.059% | 99.8 ± 3.3% | 93.4 ± 2.7% | 95.3 ± 4.2% | 53.7 ± 8.3% | 2 ± 0.3% | 1.393 ± 0.0089% |
| Nc1ccccc1NC(=O)c1ccc(CNc2nccc(-c3cccnc3)n2)cc1 [MGCD0103 (Mocetinostat)] | 102.2 ± 1% | 100.9 ± 0.78% | 93.91 ± 0.76% | 83.5 ± 1.2% | 82.8 ± 1.6% | 34.1 ± 1.1% | 99.5 ± 1.3% | 102 ± 1.1% | 105.6 ± 0.9% | 93.1 ± 2.1% | 68.6 ± 0.98% | 18.5 ± 0.42% |
| O=C(CN1C(=O)C2(CCCC2)NC[C@H]1c1cc(F)cc(F)c1)Nc1ccc2c(c1)C[C@@]1(C2)C(=O)Nc2ncccc21 [MK 3207 hydrochloride] | 114 ± 1.5% | 114 ± 1.4% | 114.8 ± 0.14% | 113 ± 3.3% | 116.5 ± 0.26% | 104 ± 2.5% | 103 ± 1.3% | 103 ± 1.4% | 101.4 ± 0.9% | 101.2 ± 0.77% | 102 ± 2% | 102 ± 1.4% |
| O=C(O)CC[C@H]1CC[C@@](c2cc(F)ccc2F)(S(=O)(=O)c2ccc(Cl)cc2)CC1 [MK-0752] | 108 ± 3.6% | 104 ± 3.3% | 102 ± 3.8% | 98.1 ± 2.5% | 101.6 ± 0.5% | 97 ± 5% | 115 ± 4.2% | 108 ± 0.7% | 107 ± 1.9% | 111.21 ± 0.076% | 106 ± 5.4% | 111 ± 1.3% |
| NC1(c2ccc(-c3nc4ccn5c(=O)[nH]nc5c4cc3-c3ccccc3)cc2)CCC1 [MK-2206] | 102.1 ± 0.84% | 102 ± 4.5% | 101 ± 2.4% | 98.62 ± 0.66% | 95.7 ± 1.4% | 59 ± 3.6% | 79.7 ± 4.3% | 81.98 ± 0.32% | 79.4 ± 1.1% | 77.6 ± 1.3% | 74 ± 2.4% | 25.2 ± 3.4% |
| S=C(NCc1ccc2c(c1)OCO2)N1CCN(c2ncnc3c2oc2ccccc23)CC1 [MP-470] | 105 ± 1.2% | 116 ± 4.3% | 112 ± 2.3% | 125 ± 1.3% | 118 ± 4.8% | 116.2 ± 0.7% | 88.5 ± 5.1% | 104 ± 1.4% | 103.8 ± 0.57% | 106 ± 1.4% | 105.95 ± 0.02% | 112 ± 3.2% |
